# Measurements taken from patent publication USRE49080E1, “Glycoside derivatives and uses thereof” (Novartis AG, priority 2009, dated 2022).
# Experiments:
# [1] = molecular target: human sodium glucose co-transporter 2 (Homo sapiens (Human), UniProt P31639); experiment: SGLT-2 assay: 14C-AMG uptake in CHO-hSGLT2 or HEK-hSGLT2 cells; assay type: cell-based; details: n = 1-4, cells stably transfected with hSGLT2, read-out: SGLT2 IC50 nM (n = 1-4)
# Method: These cell lines transport 14 C-labelled alpha-methyl-glucopyranoside (14 C-AMG, Amersham) into the interior of the cell in sodium-dependent manner.
# (§1) The SGLT-2 assay is carried out as follows: CHO-hSGLT2 cells are cultivated in Ham's F12 Medium (BioWhittaker) with 10% foetal calf serum and 250 μg/mL zeocin (Invitrogen), and HEK293-hSGLT2 cells are cultivated in DMEM medium with 10% foetal calf serum and 250 μg/mL zeocin (Invitrogen). The cells are detached from the culture flasks by washing twice with PBS and subsequently treating with trypsin/EDTA. After the addition of cell culture medium the cells are centrifuged, resuspended in culture medium and counted in a Casy cell counter. Then 40,000 cells per well are seeded into a white, 96-well plate coated with poly-D-lysine and incubated overnight at 37° C., 5% CO2. The cells are washed twice with 250 μl of assay buffer (Hanks Balanced Salt Solution, 137 mM NaCl, 5.4 mM KCl, 2.8 mM CaCl2, 1.2 mM MgSO4 and 10 mM HEPES (pH 7.4), 50 μg/mL of gentamycin). 250 μl of assay buffer and 5 μl of test compound are then added to each well and the plate is incubated for a further 15 minutes in the incubator. 5 μl of 10% DMSO are used as the negative control. The reaction is started by adding 5 μl of 14 C-AMG (0.05 μCi) to each well. After 2 hours' incubation at 37° C., 5% CO2, the cells are washed again with 250 μl of PBS […] and then lysed by the addition of 25 μl of 0.1 N NaOH (5 min. at 37° C.). 200 μl of MicroScint20 (Packard) are added to each well and incubation is continued for a further 20 min at 37° C. After this incubation the radioactivity of the 14 C-AMG absorbed is measured in a Topcount (Packard) using a 14 C scintillation program.
# human SGLT1 = human SGLT1 (Homo sapiens (Human), UniProt P13866); experiment: SGLT1 assay: analogous test with hSGLT1 cDNA expressed in CHO-K1 or HEK293 cells; assay type: cell-based; details: n = 1-4; 14C-AMG uptake, cells expressing hSGLT1
# Sequence of human SGLT1 (P13866 whole entry): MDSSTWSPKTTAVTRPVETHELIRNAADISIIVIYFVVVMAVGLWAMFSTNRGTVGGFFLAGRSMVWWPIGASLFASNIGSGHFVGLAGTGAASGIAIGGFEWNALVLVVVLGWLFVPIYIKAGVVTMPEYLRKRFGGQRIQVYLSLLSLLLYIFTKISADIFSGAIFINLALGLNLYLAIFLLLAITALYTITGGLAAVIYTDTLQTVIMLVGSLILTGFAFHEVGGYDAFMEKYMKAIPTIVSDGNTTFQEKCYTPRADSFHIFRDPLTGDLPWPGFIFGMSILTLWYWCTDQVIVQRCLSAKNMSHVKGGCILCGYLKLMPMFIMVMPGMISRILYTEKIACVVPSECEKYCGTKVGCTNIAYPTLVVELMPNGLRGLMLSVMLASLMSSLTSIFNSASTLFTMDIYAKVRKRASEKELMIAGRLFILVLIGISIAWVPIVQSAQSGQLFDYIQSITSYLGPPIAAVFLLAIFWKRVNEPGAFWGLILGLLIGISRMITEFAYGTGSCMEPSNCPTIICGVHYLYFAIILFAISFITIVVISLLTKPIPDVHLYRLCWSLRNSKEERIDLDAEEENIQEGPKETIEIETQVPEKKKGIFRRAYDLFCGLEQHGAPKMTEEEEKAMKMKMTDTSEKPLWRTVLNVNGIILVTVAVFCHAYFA
# Method: as §1
# To determine the selectivity with respect to human SGLT1 an analogous test is set up in which the cDNA for hSGLTI (Genbank Ace. No. NM000343) instead of hSGLT2 cDNA is expressed in CHO-K1 or HEK293 cells.
# Sequence of human sodium glucose co-transporter 2 (P31639 whole entry): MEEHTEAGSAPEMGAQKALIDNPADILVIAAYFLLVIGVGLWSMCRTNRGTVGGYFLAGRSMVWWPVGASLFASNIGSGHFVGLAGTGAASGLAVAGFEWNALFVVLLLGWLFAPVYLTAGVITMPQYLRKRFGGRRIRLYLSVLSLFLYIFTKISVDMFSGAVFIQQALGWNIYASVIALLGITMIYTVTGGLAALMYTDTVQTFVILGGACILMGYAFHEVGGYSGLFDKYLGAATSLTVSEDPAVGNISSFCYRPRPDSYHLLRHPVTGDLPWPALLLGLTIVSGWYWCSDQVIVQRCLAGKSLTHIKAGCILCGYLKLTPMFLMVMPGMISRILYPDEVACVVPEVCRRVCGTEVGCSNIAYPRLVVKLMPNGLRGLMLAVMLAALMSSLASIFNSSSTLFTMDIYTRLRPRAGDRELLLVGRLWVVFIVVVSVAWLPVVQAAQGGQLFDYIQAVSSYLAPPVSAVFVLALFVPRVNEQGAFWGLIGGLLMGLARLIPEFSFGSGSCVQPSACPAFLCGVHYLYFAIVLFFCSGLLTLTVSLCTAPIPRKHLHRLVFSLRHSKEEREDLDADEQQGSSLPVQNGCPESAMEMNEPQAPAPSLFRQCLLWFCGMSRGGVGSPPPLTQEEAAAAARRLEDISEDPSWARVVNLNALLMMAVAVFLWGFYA
SMILES,IC50 [1] [nM],IC50 (human SGLT1) [nM]
"CC1(C)CNc2cc(Cc3cc([C@@H]4O[C@H](CO)[C@@H](O)[C@H](O)[C@H]4O)ccc3Cl)ccc2O1 [Example 20, (2S,3R,4R,5S,6R)-2-[4-Chloro-3-(2,2-dimethyl-3,4-dihydro-2H-benzo[1,4]oxazin-6-ylmethyl)-phenyl]-6-hydroxymethyl-tetrahydro-pyran-3,4,5-triol]",0.55,> 3700
"OC[C@H]1O[C@@H](c2ccc(Cl)c(Cc3ccc4c(c3)CCCN4)c2)[C@H](O)[C@@H](O)[C@@H]1O [Example 15, (2S,3R,4R,5S,6R)-2-[4-Chloro-3-(1,2,3,4-tetrahydro-quinolin-6-ylmethyl)-phenyl]-6-hydroxymethyl-tetrahydro-pyran-3,4,5-triol]",0.2,650
"O=C1CCOc2ccc(Cc3cc([C@@H]4O[C@H](CO)[C@@H](O)[C@H](O)[C@H]4O)ccc3Cl)cc21 [Example 35, 6-[2-Chloro-5-((2S,3R,4R,5S,6R)-3,4,5-trihydroxy-6-hydroxymethyl-tetrahydro-pyran-2-yl)-benzyl]-chroman-4-one]",9.5,1100
"OC[C@H]1O[C@@H](c2ccc(Cl)c(Cc3ccc4c(c3)NCCC4)c2)[C@H](O)[C@@H](O)[C@@H]1O [Example 16, (2S,3R,4R,5S,6R)-2-[4-Chloro-3-(1,2,3,4-tetrahydro-quinolin-7-ylmethyl)-phenyl]-6-hydroxymethyl-tetrahydro-pyran-3,4,5-triol]",0.15,750
"OC[C@H]1O[C@@H](c2ccc(Cl)c(Cc3ccc4c(c3)CCN4)c2)[C@H](O)[C@@H](O)[C@@H]1O [Example 17, (2S,3R,4R,5S,6R)-2-[4-Chloro-3-(2,3-dihydro-1H-indol-5-ylmethyl)-phenyl]-6-hydroxymethyl-tetrahydro-pyran-3,4,5-triol]",0.8,480
"COc1ccc(CN2CCCc3cc(Cc4cc([C@@H]5O[C@H](CO)[C@@H](O)[C@H](O)[C@H]5O)ccc4Cl)ccc32)cc1 [Example 14, (2S,3R,4R,5S,6R)-2-{4-Chloro-3-[1-(4-methoxy-benzyl)-1,2,3,4-tetrahydro-quinolin-6-ylmethyl]-phenyl}-6-hydroxymethyl-tetrahydro-pyran-3,4,5-triol]",5.5,800
"CCN1CCOc2ccc(Cc3cc([C@@H]4O[C@H](CO)[C@@H](O)[C@H](O)[C@H]4O)ccc3Cl)cc21 [Example 9, (2S,3R,4R,5S,6R)-2-[4-Chloro-3-(4-ethyl-3,4-dihydro-2H-benzo[1,4]oxazin-6-ylmethyl)-phenyl]-6-hydroxymethyl-tetrahydro-pyran-3,4,5-triol]",7.2,
"OC[C@H]1O[C@@H](c2ccc(Cl)c(Cc3ccc4c(c3)C(O)CCO4)c2)[C@H](O)[C@@H](O)[C@@H]1O (stereo partly drawn) [Example 36, (2S,3R,4R,5S,6R)-2-[4-Chloro-3-(4-hydroxy-chroman-6-ylmethyl)-phenyl]-6-hydroxymethyl-tetrahydro-pyran-3,4,5-triol]",28,
"OC[C@H]1O[C@@H](c2ccc(Cl)c(Cc3ccc4c(c3)OCCN4)c2)[C@H](O)[C@@H](O)[C@@H]1O [Example 28, (2S,3R,4R,5S,6R)-2-[4-Chloro-3-(3,4-dihydro-2H-benzo[1,4]oxazin-7-ylmethyl)-phenyl]-6-hydroxymethyl-tetrahydro-pyran-3,4,5-triol]",0.33,1000
"CCc1ccc([C@@H]2O[C@H](CO)[C@@H](O)[C@H](O)[C@H]2O)cc1Cc1ccc2c(c1)NCCO2 [Example 66, (2S,3R,4R,5S,6R)-2-[3-(3,4-Dihydro-2H-benzo[1,4]oxazin-6-ylmethyl)-4-ethyl-phenyl]-6-hydroxymethyl-tetrahydro-pyran-3,4,5-triol]",0.9,100
"OC[C@H]1O[C@@H](c2ccc(C3CC3)c(Cc3ccc4c(c3)NCCO4)c2)[C@H](O)[C@@H](O)[C@@H]1O [Example 65, (2S,3R,4R,5S,6R)-2-[4-Cyclopropyl-3-(3,4-dihydro-2H-benzo[1,4]oxazin-6-ylmethyl)-phenyl]-6-hydroxymethyl-tetrahydro-pyran-3,4,5-triol]",2.7,170
"OC[C@H]1O[C@@H](c2ccc(F)c(Cc3ccc4c(c3)NCCO4)c2)[C@H](O)[C@@H](O)[C@@H]1O [Example 24, (2S,3R,4R,5S,6R)-2-[3-(3,4-Dihydro-2H-benzo[1,4]oxazin-6-ylmethyl)-4-fluoro-phenyl]-6-hydroxymethyl-tetrahydro-pyran-3,4,5-triol]",1.3,31000
"CCN1CCOc2cc(Cc3cc([C@@H]4O[C@H](CO)[C@@H](O)[C@H](O)[C@H]4O)ccc3Cl)ccc21 [Example 2, (2S,3R,4R,5S,6R)-2-[4-Chloro-3-(4-ethyl-3,4-dihydro-2H-benzo[1,4]oxazin-7-ylmethyl)-phenyl]-6-hydroxymethyl-tetrahydro-pyran-3,4,5-triol]",11.1,2500
"CC(C)c1ccc([C@@H]2O[C@H](CO)[C@@H](O)[C@H](O)[C@H]2O)cc1Cc1ccc2c(c1)NCCC2 [Example 71, (2R,3S,4R,5R,6S)-2-Hydroxymethyl-6-[4-isopropyl-3-(1,2,3,4-tetrahydro-quinolin-7-ylmethyl)-phenyl]-tetrahydro-pyran-3,4,5-triol]",1.5,19
"OC[C@H]1O[C@@H](c2ccc(Cl)c(Cc3ccc4c(c3)CCO4)c2)[C@H](O)[C@@H](O)[C@@H]1O [Example 22, (2S,3R,4R,5S,6R)-2-[4-Chloro-3-(2,3-dihydro-benzofuran-5-ylmethyl)-phenyl]-6-hydroxymethyl-tetrahydro-pyran-3,4,5-triol]",0.4,
"OC[C@H]1O[C@@H](c2ccc(OC(F)(F)F)c(Cc3ccc4c(c3)CCCO4)c2)[C@H](O)[C@@H](O)[C@@H]1O [Example 33, (2S,3R,4R,5S,6R)-2-(3-Chroman-6-ylmethyl-4-trifluoromethoxy-phenyl)-6-hydroxymethyl-tetrahydro-pyran-3,4,5-triol]",11,157
"OC[C@H]1O[C@@H](c2ccc(Cl)c(Cc3ccc4c(c3)N(Cc3ccccc3)CCO4)c2)[C@H](O)[C@@H](O)[C@@H]1O [Example 4, (2S,3R,4R,5S,6R)-2-[3-(4-Benzyl-3,4-dihydro-2H-benzo[1,4]oxazin-6-ylmethyl)-4-chloro-phenyl]-6-hydroxymethyl-tetrahydro-pyran-3,4,5-triol]",65,
"OC[C@H]1O[C@@H](c2ccc(Cl)c(Cc3ccc4c(c3)CCCO4)c2)[C@H](O)[C@@H](O)[C@@H]1O [Example 21, (2S,3R,4R,5S,6R)-2-(4-Chloro-3-chroman-6-ylmethyl-phenyl)-6-hydroxymethyl-tetrahydro-pyran-3,4,5-triol]",0.2,1100
"CN1CCOc2cc(Cc3cc([C@@H]4O[C@H](CO)[C@@H](O)[C@H](O)[C@H]4O)ccc3Cl)ccc21 [Example 1, (2S,3R,4R,5S,6R)-2-[4-Chloro-3-(4-methyl-3,4-dihydro-2H benzo[1,4]oxazin-7-ylmethyl)-phenyl]-6-hydroxymethyl-tetrahydro-pyran-3,4,5-triol]",2.7,655
"CC1(C)Oc2ccc(Cc3cc([C@@H]4O[C@H](CO)[C@@H](O)[C@H](O)[C@H]4O)ccc3Cl)cc2NC1=O [Example 46, 6-[2-Chloro-5-((2S,3R,4R,5S,6R)-3,4,5-trihydroxy-6-hydroxymethyl-tetrahydro-pyran-2-yl)-benzyl]-2,2-dimethyl-4H-benzo[1,4]oxazin-3-one]",14,> 3900
"OC[C@H]1O[C@@H](c2ccc(Cl)c(Cc3ccc4c(c3)N(CC3CC3)CCO4)c2)[C@H](O)[C@@H](O)[C@@H]1O [Example 10, (2S,3R,4R,5S,6R)-2-[4-Chloro-3-(4-cyclopropylmethyl-3,4-dihydro-2H-benzo[1,4]oxazin-6-ylmethyl)-phenyl]-6-hydroxymethyl-tetrahydro-pyran-3,4,5-triol]",18,
"OC[C@H]1O[C@@H](c2ccc(Cl)c(Cc3ccc4c(c3)CCC3(CCCC3)O4)c2)[C@H](O)[C@@H](O)[C@@H]1O [Example 38, (2S,3R,4R,5S,6R)-2-[4-Chloro-3-(spiro[chromane-2,1′-cyclopentane]-6-ylmethyl)phenyl]-6-(hydroxymethyl)tetrahydropyran-3,4,5-triol]",14.4,
"OC[C@H]1O[C@@H](c2ccc(Cl)c(Cc3ccc4c(c3)OCCN4C3CC3)c2)[C@H](O)[C@@H](O)[C@@H]1O [Example 3, (2S,3R,4R,5S,6R)-2-[4-Chloro-3-(4-cyclopropyl-3,4-dihydro-2Hbenzo[1,4]oxazin-7ylmethyl)-phenyl]-6-hydroxymethyltetrahydropyran3,4,5-triol]",16,
